Measurements: PubChem BioAssay (NCI)
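Where inhibition never reached the appropriate level, the endpoint shown equals the highest concentration tested. Otherwise, values were interpolated linearly from a five-concentration, 48-hour dose response in 96-well plates. TGI denotes the concentration required for complete inhibition of growth.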

Assays:
Assay in all cases: inhibition of tumour cell growth, NCI panel, 48 h
MALME-3M melanoma = tested on: MALME-3M melanoma
MCF7 breast = tested on: MCF7 breast
A498 renal = tested on: A498 renal
RXF 393 renal = tested on: RXF 393 renal
SK-MEL-5 melanoma = tested on: SK-MEL-5 melanoma
SF-268 CNS = tested on: SF-268 CNS
OVCAR-3 ovarian = tested on: OVCAR-3 ovarian
SNB-19 CNS = tested on: SNB-19 CNS
NCI-H460 lung = tested on: NCI-H460 lung
SK-MEL-2 melanoma = tested on: SK-MEL-2 melanoma
BT-549 breast = tested on: BT-549 breast
PC-3 prostate = tested on: PC-3 prostate
NCI/ADR-RES ovarian = tested on: NCI/ADR-RES ovarian
COLO 205 colon = tested on: COLO 205 colon
MOLT-4 leukemia = tested on: MOLT-4 leukemia
UO-31 renal = tested on: UO-31 renal
SW-620 colon = tested on: SW-620 colon
SF-295 CNS = tested on: SF-295 CNS
A549 NSCLC = tested on: A549 NSCLC
RPMI-8226 leukemia = tested on: RPMI-8226 leukemia

Row | Compound | TGI (MALME-3M melanoma) [µM] | TGI (MCF7 breast) [µM] | TGI (A498 renal) [µM] | TGI (RXF 393 renal) [µM] | TGI (SK-MEL-5 melanoma) [µM] | TGI (SF-268 CNS) [µM] | TGI (OVCAR-3 ovarian) [µM] | TGI (SNB-19 CNS) [µM] | TGI (NCI-H460 lung) [µM] | TGI (SK-MEL-2 melanoma) [µM] | TGI (BT-549 breast) [µM] | TGI (PC-3 prostate) [µM] | TGI (NCI/ADR-RES ovarian) [µM] | TGI (COLO 205 colon) [µM] | TGI (MOLT-4 leukemia) [µM] | TGI (UO-31 renal) [µM] | TGI (SW-620 colon) [µM] | TGI (SF-295 CNS) [µM] | TGI (A549 NSCLC) [µM] | TGI (RPMI-8226 leukemia) [µM]
1 | COc1cc2ccc1OCc1cccc(n1)COc1ccc(cc1OC)C=Nc1ccc(cc1)-c1ccc(cc1)N=C2 | > 100 | > 100 | > 100 | > 100 | > 100 | > 100 | > 100 | > 100 | > 100 | > 100 | > 100 | > 100 | > 100 | > 100 | > 100 | > 100 | > 100 | > 100 | > 100 | 
2 | CC(=O)Oc1cc(C)c(OC(C)=O)c2c1[C@H]1CC[C@]3(C)[C@@H](OC(C)=O)CC[C@H]3[C@@H]1CC2 | 36 | 36.1 | 32.8 | 33.9 | 31.3 | 47.6 | 32.1 | 32.2 | 33.1 |  | 30.7 | 26.9 | 41.2 |  | 33.7 | 28.7 | 34.3 | 37.2 | 34.4 | 59.2
3 | CCN(CC)c1ccc2cc(C(=O)Nc3nc(C45CC6CC(CC(C6)C4)C5)cs3)c(=O)oc2c1 | > 100 | > 100 | > 100 | > 100 | > 100 | > 100 | > 100 | > 100 | > 100 |  | > 100 | > 100 | > 100 | > 100 | > 100 | > 100 | > 100 | > 100 | > 100 | > 100
4 | O=C1CC(c2ccc(Cl)cc2)C2(C(=O)NC(=O)NC2=O)C(c2ccc(Cl)cc2)C1 (stereo not drawn) | 39.8 | > 75 |  | 52.2 | 47.1 | > 75 | > 75 | > 75 | > 75 | 38.4 | > 75 | > 75 | > 75 | 65.1 | 41.3 | > 75 | 67.4 | > 75 |  | 32.6
5 | O=C(O)c1cc(O)c2c(c1)C([C@@H]1c3cccc(O)c3C(=O)c3c(O)cc(C(=O)O)cc31)c1cccc(O)c1C2=O (stereo partly drawn) | 44.7 | 91.8 | 69.3 | 85 | 32.2 | 96.9 | > 100 | > 100 | > 100 |  | > 100 | > 100 | > 100 | > 100 | 69.2 | > 100 | > 100 | > 100 | > 100 | > 100
6 | CN(C)CCc1ccnc2nc(-c3ccc4ccccc4c3)cn12 | > 100 | > 100 |  | > 100 | > 100 | 77.5 | 72 | > 100 | 34.1 | > 100 | 69 | > 100 | 85.3 | > 100 | > 100 | > 100 | 47.7 | > 100 | > 100 | > 100
7 | S=C1N=C(Cl)/C(=C\c2ccco2)N1 | > 100 | > 100 | > 100 | > 100 | > 100 | > 100 | > 100 | > 100 | > 100 | > 100 | > 100 | > 100 | > 100 | > 100 |  | > 100 | > 100 | > 100 | > 100 | > 100
8 | O=C(Cn1c2ccc(Br)cc2c2nc3ccccc3nc21)N/N=C/c1ccccc1 |  | > 100 | > 100 | > 100 | > 100 | > 100 | > 100 | > 100 |  | > 100 | > 100 | > 100 | > 100 | > 100 |  | > 100 | > 100 | 84.8 | > 100 | 
9 | COC(=O)c1ccccc1C1CN=NC12Cc1cc(C)c(C)cc1C2=O (stereo not drawn) | > 100 | 65 | > 100 | > 100 | 38.1 | > 100 | > 100 | > 100 | > 100 | > 100 | > 100 | > 100 | > 100 | > 100 | 89.8 | > 100 | > 100 | > 100 | > 100 | 
10 | O=C(NCCNCCNC(=O)C(F)(F)F)C(F)(F)F | > 100 | > 100 |  | > 100 | > 100 | > 100 | > 100 | > 100 |  | > 100 | > 100 | > 100 | > 100 | > 100 | > 100 | > 100 | > 100 | > 100 | > 100 | > 100
11 | CCSC1=N/C(=C/c2ccccc2O)C(=O)N1 | > 100 | > 100 |  | 68.1 | > 100 | > 100 | > 100 | > 100 | > 100 | > 100 | > 100 | > 100 | > 100 | > 100 | > 100 | > 100 | > 100 | > 100 | > 100 | > 100
